In paper PMC11274128, “Modification and Synergistic Studies of a Novel Frog Antimicrobial Peptide against Pseudomonas aeruginosa Biofilms” (Antibiotics, 2024):
In brackets after ≈: the same amount, converted by molar mass. Read-outs that look alike come from different tables or passages of the source. Bridge positions count the residues as written; N and C are the ends. Peptide text beside a SMILES is read from it.

Tests used:
[1] = tested on: E. coli (ATCC 8739); assay: microbe, parasite or virus in culture; type: cell-based, Escherichia coli; details: planktonic E. coli ATCC 8739
[2] = tested on: K. pneumoniae (ATCC 43816); assay: microbe, parasite or virus in culture; type: cell-based, Klebsiella pneumoniae; details: planktonic K. pneumoniae ATCC 43816
[3] = tested on: C. albicans (ATCC 10231); type: cell-based, Candida albicans; details: yeast C. albicans ATCC 10231
Excerpt: The minimum inhibitory concentration (MIC) is the minimum concentration of an antimicrobial agent that prevents the visible growth of a bacterium or bacteria. The MIC is an important piece of data for research on new antimicrobial agents and helps in the effective selection of antibiotics to improve the success of treatment. The minimum bactericidal concentration (MBC) is defined as the lowest antibiotic concentration that kills 99.9% of the inoculum. This study mainly contained eight different microorganisms, which were Staphylococcus aureus (ATCC 6538), methicillin-resistant Staphylococcus aureus (NCTC 12493), Enterococcus faecalis (NCTC 12697), Escherichia coli (ATCC 8739), Klebsiella pneumoniae (ATCC 43816), Pseudomonas aeruginosa (ATCC CRM 9027), Acinetobacter baumannii (BAA 747), and Candida albicans (ATCC 10231). The bacteria were incubated in the compatible medium at 37 °C overnight.

[4] = tested on: Yeast; assay: Geometric mean of MICs and TI value; type: cell-based, Candida albicans; details: C. albicans ATCC 10231
Experimental: The therapeutic potential of antimicrobial agents was valued based on their selectivity toward bacteria in reference to erythrocytes. The TI value was calculated from the results of antibacterial and haemolysis experiments of peptides using the following formula:TI value = HC10 / GMMICs.
GM was the geometric mean of MICs against all tested bacteria.

[5] = tested on: A. baumannii BAA 747; details: checkerboard MIC, planktonic A. baumannii BAA 747, 37 °C, 24 h, OD 550 nm
Experimental: (§1) The bacteria were cultured, subcultured, diluted, and incubated as the methods of the MIC assay. The pure peptides and antibiotics were weighed and, respectively, dissolved in DMSO and dd water to make the final concentration of 2× MIC. […] Different concentrations of peptide and antibiotic solutions were added to a 96-well plate in the form of a checkerboard grid. The blank control and growth control were still 100 µL medium and 100 µL bacterial culture. The plate was incubated at 37 °C for 24 h. After that, the plate reader was used to monitor the absorbance of each well at 550 nm (The Synergy TM HT, BioTek, Winooski, VT, USA).
(§2) Parameter fractional inhibitory concentration indices (FICIs) were used to evaluate the synergistic effect, and the value of that was calculated as follows:FICI = FICa + FICb FICa = MIC combination peptide/MIC single peptide FICb = MIC combination antibiotic/MIC single antibiotic
(§3) The FICI value was interpreted as “synergy” (FICI ≤ 0.5), “no interaction” (0.5 < FICI ≤ 4), or “antagonism” (FICI > 4).

[6] = tested on: E. coli ATCC 8739; details: checkerboard MIC, planktonic E. coli ATCC 8739, 37 °C, 24 h, OD 550 nm
Experimental: as §1, §2, §3

[7] = tested on: E. faecalis NCTC 12697; details: checkerboard MIC, planktonic E. faecalis NCTC 12697, 37 °C, 24 h, OD 550 nm
Experimental: as §1, §2, §3

[8] = tested on: K. pneumoniae ATCC 43816; details: checkerboard MIC, planktonic K. pneumoniae ATCC 43816, 37 °C, 24 h, OD 550 nm
Experimental: as §1, §2, §3

[9] = tested on: MRSA NCTC 12493; details: checkerboard MIC, planktonic MRSA NCTC 12493, 37 °C, 24 h, OD 550 nm
Experimental: as §1, §2, §3

[10] = tested on: P. aeruginosa ATCC CRM 9027; details: checkerboard MIC, planktonic P. aeruginosa ATCC CRM 9027, 37 °C, 24 h, OD 550 nm
Experimental: as §1, §2, §3

[11] = tested on: S. aureus ATCC 6538; details: checkerboard MIC, planktonic S. aureus ATCC 6538, 37 °C, 24 h, OD 550 nm
Experimental: as §1, §2, §3

[12] = tested on: S. aureus ATCC 6538 biofilm; type: cell-based, Staphylococcus aureus
Excerpt: The minimum bactericidal concentration (MBC) is defined as the lowest antibiotic concentration that kills 99.9% of the inoculum. The minimum biofilm inhibitory concentration (MBIC) is the lowest concentration that inhibits at least 90% of the formation of biofilm. The minimum biofilm eradication concentration (MBEC) is the minimum concentration that can eradicate at least 99% of the biofilm. In addition to the eight microorganisms described previously, this experiment was also applied to P. aeruginosa (ATCC 27853, ATCC BAA-2108, P. aeruginosa 01, P. aeruginosa 14).

[13] = tested on: E. faecalis NCTC 12697 biofilm; assay: Peptide and antibiotic co-administration MBIC checkerboard assay; type: cell-based, Enterococcus faecalis; details: peptide combined with cefepime, 24 h, crystal violet, 595 nm
Excerpt: (§4) The plate was then carefully cleaned under running water.

[14] = tested on: P. aeruginosa ATCC CRM 9027 biofilm; assay: as above; type: cell-based, Pseudomonas aeruginosa; details: 24 h, crystal violet, 595 nm
Excerpt: as §4

[15] = 37 °C, nine repeats of three independent experiments
[16] = lowest concentration killing 99.9% of inoculum
[17] = peptide combined with gentamicin
[18] = peptide combined with levofloxacin
[19] = peptide combined with vancomycin

`CC[C@H](C)[C@H](NC(=O)[C@H](CCCCN)NC(=O)[C@H](CCCCN)NC(=O)CNC(=O)[C@H](C)NC(=O)[C@H](CCCNC(=N)N)NC(=O)[C@H](CC(C)C)NC(=O)[C@@H](NC(=O)[C@H](C)NC(=O)[C@H](CCCNC(=N)N)NC(=O)[C@H](CC(C)C)NC(=O)[C@H](CC(C)C)NC(=O)CN)C(C)C)C(=O)N[C@H](C(=O)N[C@H]1CSSC[C@@H](C(=O)O)NC(=O)[C@H](CCCNC(=N)N)NC(=O)CNC(=O)[C@H](CO)NC(=O)[C@H](CC(C)C)NC(=O)CNC1=O)C(C)C` [Peptide 2170-2R] (H-GLLRAVLRAGKKIVCGLSGRC-OH; disulfide 15-21) gave an MIC ([1]; 37 °C, nine repeats of three independent experiments, read-out: MIC) of 4 µM (≈ 8.67 µg/mL), an MBC ([1]; lowest concentration killing 99.9% of inoculum, read-out: MBC) of 8 µM (≈ 17.3 µg/mL) and an MIC [2, 15] of 32 µM (≈ 69.4 µg/mL). For the same compound, the MBC [2, 16] was 32 µM (≈ 69.4 µg/mL), the MIC [3, 15] was 64 µM (≈ 139 µg/mL) and the MBC [3, 16] was 128 µM (≈ 278 µg/mL). For the same compound, the “GM (geometric mean of MICs), Yeast” value [4] was 64.00 µM, the FICI ([5]; peptide combined with cefepime) was 1.5 and the FICI [5, 17] was 0.25. For the same compound, the FICI [5, 18] was greater than 4, the FICI [5, 19] was 0.625 and the FICI ([6]; peptide combined with cefepime) was 0.5312. It also gave an FICI [6, 17] of 0.125, an FICI [6, 18] of 0.375 and an FICI [6, 19] greater than 4. For the same compound, the FICI ([7]; peptide combined with cefepime) was 0.1562, the FICI [7, 17] was 0.625 and the FICI [7, 18] was 0.625. The FICI [7, 19] was 0.625, the FICI ([8]; peptide combined with cefepime) was 0.1875 and the FICI [8, 17] was 0.1562. The FICI [8, 18] was 1, the FICI [8, 19] was 1.125 and the FICI ([9]; peptide combined with cefepime) was 0.75. The FICI [9, 17] was 0.375, the FICI [9, 18] was 1.125 and the FICI [9, 19] was 0.625. The FICI ([10]; peptide combined with cefepime) was 0.5, the FICI [10, 17] was 0.5 and the FICI [10, 18] was 0.625. For the same compound, the FICI [10, 19] was 1.125, the FICI ([11]; peptide combined with cefepime) was 1 and the FICI [11, 17] was 1. The FICI [11, 18] was 0.625, the FICI [11, 19] was 0.625 and the MBIC ([12]; lowest concentration inhibiting at least 90% of biofilm formation) was 4 µM. For the same compound, the MBEC ([12]; minimum concentration eradicating at least 99% of the biofilm) was 16 µM, the “Biofilm FICI” value [13] was 0.375 and the “Biofilm FICI” value ([14]; peptide combined with cefepime) was 0.5. For the same compound, the “Biofilm FICI” value [14, 17] was 1.
